Experimental data reported in patent US7993687B2, “Compositions and methods for management of diabetes” (priority 2006, dated 2011).

Columns and labels:
plasma glucose = settings: normal rats; synthetic D-CI intragastrically 2 hours before intraperitoneal glucose load (4 g/kg); cited from earlier work
[1] = tested on: S6 ribosomal protein (Ser235/236); test: Western blot of ribosomal protein S6 phosphorylation in H4IIE cells; type: cell-based, rat; settings: 6 minutes
Procedure: Tissue culture media, antibiotics, fetal bovine serum (FBS) and Nunc tissue culture plates were purchased from Invitrogen Canada Inc. (Burlington, Ontario, Canada, L7P 1A1). Insulin (Sigma-Aldrich Canada Ltd., Oakville, Ontario, Canada, L6H 6J8) was dissolved in water and added directly to cells at a concentration of 250 nM unless otherwise indicated. The BWE was prepared and analyzed as described in Example 1. Two μL of the BWE were added directly to cells unless otherwise indicated. This amount was chosen on the basis of equivalence to insulin. […]
Cellular protein extracts were prepared by addition of 200 μL 2×SDS/gel loading buffer (0.125 M Tris pH 6.8, 2% SDS, 10% glycerol) to H4IIE cells in 12-well culture dishes. The samples were briefly sonicated, and protein content measured using the BCA protein assay kit. […] HRP was detected using the ECL chemiluminescent system after the membranes had been washed four times.
Quantification of data obtained on film (Kodak X-omat) was accomplished with a GS800 imaging densitometer (Bio-Rad Laboratories) under nonsaturating conditions with local background subtraction. […]

Compound	decrease in plasma glucose (plasma glucose)	phosphorylation of ribosomal protein S6 [1]
OC1C(O)C(O)C(O)C(O)C1O [D-CI, D-chiro-inositol]	30-50%	
insulin: Insulin (Sigma-Aldrich) dissolved in water, positive comparator		insulin did
